From US20260224611A1, “POLYOL-B-POLYOXAZOLINE COPOLYMERS” (FREIE UNIVERSITÄT BERLIN, priority 2023, published 2026)

Columns and labels:
[1] = test system: infected non-diabetic wounds; assay: Wound healing animal study, infected non-diabetic wounds; format: in vivo; settings: after 10 days, rats
Method: (§1) Based on these achievements, the efficiency of hPG-b-PEtO for diabetic wound healing in animals was investigated. For this purpose, an animal study was performed in two different groups of rats with infected non-diabetic wounds (FIG. 12A) and infected diabetic wounds (FIG. 12B). […] Saline buffer without additions was used as control. The ability of the copolymer to heal wounds was investigated by measuring the wound contraction at different treatment times.

[2] = test system: infected diabetic wounds; assay: Wound healing animal study, infected diabetic wounds; format: in vivo; settings: after 10 days, rats
Method: as §1

## O=C1NC(=O)C(c2ccccc2)(c2ccccc2)N1 [phenytoin]
[1]
  wound closure area: 90%
[2]
  wound closure area: 62%
